From patent US20250064886A1, “CARDIOVASCULAR AND CEREBROVASCULAR DRUG AND USE THEREOF” (HANGZHOU ADAMERCK PHARMLABS INC., priority 2021, published 2025)

Columns and labels:
[1] = system: vascular endothelial-injury thrombosis model in zebrafish; experiment: Preventative effect of compound (1) on vascular endothelial injury induced thrombosis in zebrafish (Example 3); type: in vivo; settings: for Cardiac erythrocyte staining intensity (pixels, mean ± SE): n = 10
Experimental: Experimental method: Wild-type AB strain zebrafish were treated with 4 μg/mL punatinib for 18 h to establish vascular endothelial-injury thrombosis model in zebrafish. 150 of 5 dpf wild-type AB strain zebrafish were randomly selected and placed in six-well plates with 30 fish per well (experimental group). The zebrafish were injected with compound (1) at a dose of 2.06 ng/tail, and 6.18 ng/tail, and the positive control drug acetylsalicylic acid was given by dissolving it in water with a concentration of 30 µg/mL, while the normal control group (i.e., zebrafish treated with standard dilution water) and the model control group were set up, and the volume of each well (experimental group) was 3 mL. Except for normal control group, the remaining experimental groups were all given Punatinib by dissolving it in water to induce vascular endothelial injury thrombosis model in zebrafish. The zebrafish were co-treated with compound (1) and punatinib for a period of time under incubation condition at 28° C., and then stained with o-dianisidine. After staining, 10 zebrafish were randomly selected from each group and photographed under the microscope. The intensity of cardiac erythrocyte staining in zebrafish was analyzed using NIS-Elements D 3.10 advanced image-processing software, and the preventative effect of compound (I) on vascular endothelial injury thrombosis was evaluated based on the statistical results of cardiac erythrocyte staining intensity. The preventative effect on thrombosis is calculated as follows: […]
Statistical analysis were performed using Analysis of Variance and Dunnett's t-test, and p<0.05 indicates a significant difference, providing a representative experimental plot.

[2] = system: arteriovenous bypass thrombosis in rats; experiment: Arteriovenous bypass thrombosis in rats (Example 4); type: in vivo, rat; settings: for Wet weight of thrombus / Dry weight of thrombus: in g (unit assumed)
Experimental: Grouping: Divided into 5 groups, with 10 animals in each group. The model control group was given with solvent, and the test drug compound (1) and the positive control were given intravenously once a day for consecutive 3 d. The modeling started 30 min after the last dose.
Model preparation: 50 SD male rats were anesthetized with sodium pentobarbital at a dose of 60 mg/kg via ip. The rat was fixed in the supine position, and the skin was incised at the midline of the neck; the fascia and muscle tissues were separated, the left common carotid artery and the right external jugular vein were dissociated, and the arterio-venous (A-V) bypass surgery was performed using the polyethylene tubing with a built-in thread. The arterial clip was used to clamp the proximal end of the carotid artery, and one end of the polyethylene tubing was inserted into the artery, and another end was inserted into the vein, thereby completing the bypass surgery. 30 minutes after the last dose, the arterial clip was opened, and blood flowed from the left common carotid artery to the right external jugular vein through the bypass tubing, and the blood flow formed a bypass circulation, and the thrombus was taken out 15 min later.
Detection index: the blood flow was open after 15 min, the thread was taken out, the residual liquid was sucked dry, the thread attached with thrombus was weighed and the wet weight of thrombus was calculated; the dry weight of thrombus was weighed and calculated after bake-drying in the oven at 50° C. Thrombosis inhibition rate was calculated. Tails were clipped at the end of the experiment to detect bleeding time.

[3] = system: vascular endothelial injury induced thrombosis model in zebrafish; experiment: Preventative effect on vascular endothelial injury induced thrombosis, ponatinib zebrafish model (Example 1); type: in vivo; settings: 4.00 ng/tail injected
Experimental: Experimental method: 420 tails of 5 dpf wild type AB strain zebrafish were randomly selected and placed in a six-well plate, with 30 fish per well (experimental group). The fish were injected with compound (1), compound (2), compound (3), compound (4), compound (5), compound (6), compound (7), compound (8), compound (9), compound (10), and compound (11) (structural formula shown in Table 1) at a dose of 4.00 ng/tail, with positive control drug acetylsalicylic acid being administered by dissolving it in water at a concentration of 30.0 µg/mL. Normal control group (i.e. zebrafish treated with standard diluted water) and model control group were set up, with a capacity of 3 mL per well (experimental group). Except for normal control group, the remaining experimental groups were all given Punatinib by dissolving it in water to induce vascular endothelial injury induced thrombosis model in zebrafish. The zebrafish were stained with o-dianisidine after co-treatment with ponatinib and samples for a period of time under incubation conditions at 28° C.
After staining, 10 zebrafish in each group were randomly selected and photographed under the microscope, and the intensity of cardiac erythrocyte staining in zebrafish was analyzed using NIS-Elements D 3.20 advanced image-processing software, and the samples were evaluated for the preventative effect on vascular endothelial injury induced thrombosis by the statistical results of cardiac erythrocyte staining intensity.
The preventative effect on thrombosis is calculated as follows: […]
Statistical analysis was performed using SPSS software, and p<0.05 indicates significant differences

[4] = system: lipid ROS levels in Erastin-induced nerve cells; experiment: Lipid ROS levels (C11-BODIPY probe) in Erastin-induced nerve cells (Example 8); type: cell-based, rat; settings: Erastin 50 μM
Experimental: (§1) Experimental method: Primary neuron cells were incubated in a medium containing Erastin (final concentration of 50 μM) for 24 hours, and then incubated in a medium containing different concentrations of the test drug and Erastin (final concentration of 50 μM) for another 24 hours. After incubation, Real time PCR was used to detect mRNA expression of GPX4 in each group of cells, CCK8 assay was used to detect cell viability in each group of cells, C11-BODIPY probe method was used to detect intracellular lipid ROS levels in each group of cells, and PGSK probe method was used to detect iron content in cells.
(§2) The experimental data were expressed in means±SD, and statistical differences between groups were determined using one-way ANOVA and Tukey's test, with p-values less than 0.05 considered significant.
After incubation, the C11-BODIPY probe method was used to detect the lipid ROS levels in each group of cells. The results were presented as Mean±SD. Compared with the control group, ***p<0.0001; compared with the model group, #p<0.05, ##p<0.01.

[5] = system: Erastin-induced neuronal cells; experiment: Cell viability (CCK8) of Erastin-induced neuronal cells (Example 8); type: cell-based, rat; settings: Erastin 50 μM
Experimental: as §1, §2
After incubation, the CCK8 experiment was used to detect the cell viability of each group of cells. The results were presented as Mean±SD. Compared with control group, ***p<0.0001. Compared with model control group, ^#P<0.05, ^##P<0.01.

CC(=O)N[C@H](CSCC1OC2OC3C(CSC[C@@H](NC(C)=O)C(=O)[O-])OC(OC4C(CSC[C@@H](NC(C)=O)C(=O)[O-])OC(OC5C(CSC[C@@H](NC(C)=O)C(=O)[O-])OC(OC6C(CSC[C@@H](NC(C)=O)C(=O)[O-])OC(OC7C(CSC[C@@H](NC(C)=O)C(=O)[O-])OC(OC8C(CSC[C@@H](NC(C)=O)C(=O)[O-])OC(OC9C(CSC[C@@H](NC(C)=O)C(=O)[O-])OC(OC1C(O)C2O)C(O)C9O)C(O)C8O)C(O)C7O)C(O)C6O)C(O)C5O)C(O)C4O)C(O)C3O)C(=O)[O-].[Na+].[Na+].[Na+].[Na+].[Na+].[Na+].[Na+].[Na+] (stereo partly drawn) [Compound (1)]
Thromboprophylactic effect (%) ([1]; 2.06 ng/tail): 83% | Cardiac erythrocyte staining intensity (pixels, mean ± SE) ([1]; 2.06 ng/tail): 4601 ± 265 pixels | Cardiac erythrocyte staining intensity (pixels, mean ± SE) ([1]; 2.06 ng/tail, listed as compound (1)): 4601 pixels | Thromboprophylactic effect (%) ([1]; 6.18 ng/tail): 99% | Cardiac erythrocyte staining intensity (pixels, mean ± SE) ([1]; 6.18 ng/tail): 5044 ± 345 pixels | Cardiac erythrocyte staining intensity (pixels, mean ± SE) ([1]; 6.18 ng/tail, listed as compound (1)): 5044 pixels | Dry weight inhibition rate (%) ([2]; 10 mg/kg i.v.): 15.9% | Wet weight inhibition rate (%) ([2]; 10 mg/kg i.v.): 19.4% | Wet weight of thrombus ([2]; 10 mg/kg i.v. once a day 3 d, x ± s, n = 10): 0.0254 ± 0.0042 | Dry weight of thrombus ([2]; 10 mg/kg i.v. once a day 3 d): 0.0069 ± 0.0014 | Dry weight inhibition rate (%) ([2]; 20 mg/kg i.v.): 26.8% | Wet weight inhibition rate (%) ([2]; 20 mg/kg i.v.): 21.9% | Dry weight of thrombus ([2]; 20 mg/kg i.v. once a day 3 d): 0.006 ± 0.0014 | Wet weight of thrombus ([2]; 20 mg/kg i.v. once a day 3 d): 0.0246 ± 0.0045 | Dry weight inhibition rate (%) ([2]; 40 mg/kg i.v.): 37.8% | Wet weight inhibition rate (%) ([2]; 40 mg/kg i.v.): 34.3% | Dry weight of thrombus ([2]; 40 mg/kg i.v. once a day 3 d): 0.0051 ± 0.0011 | Wet weight of thrombus ([2]; 40 mg/kg i.v. once a day 3 d): 0.0207 ± 0.0041 | Preventative effect on thrombosis (%) [3]: 66% | Cardiac erythrocyte staining intensity (pixels, mean ± SE) ([3]; n = 10): 4397 ± 454 pixels | Cardiac erythrocyte staining intensity (pixels, mean ± SE) ([3]; n = 10, listed as compound (1)): 4397 pixels | Lipid ROS levels (%) ([4]; 1 μM, control = 100, Mean±SD): 150.18 ± 6.05^ % | Lipid ROS levels (%) ([4]; 2.5 μM): 142.58 ± 3.01^ % | Lipid ROS levels (%) ([4]; 5 μM): 137.9 ± 6.72% | Lipid ROS levels (%) ([4]; 10 μM): 132.33 ± 6.57^## % | Lipid ROS levels (%) ([4]; 20 μM): 121.82 ± 5.9^## % | Lipid ROS levels (%) ([4]; 40 μM): 114.13 ± 8.82^## % | Cell viability (%) ([5]; 1 μM, 24 h, control = 100, Mean±SD): 57.01 ± 2.82^ % | Cell viability (%) ([5]; 2.5 μM): 61.77 ± 6.56^ % | Cell viability (%) ([5]; 5 μM): 65.4 ± 5.81% | Cell viability (%) ([5]; 10 μM): 76.62 ± 5.99^## % | Cell viability (%) ([5]; 20 μM): 80.62 ± 5.39^## % | Cell viability (%) ([5]; 40 μM): 83.43 ± 6.21^## %
